Test results taken from article PMC9436915, “Tetrahedral framework nucleic acids‐based delivery promotes intracellular transfer of healing peptides and accelerates diabetic would healing” (Cell Proliferation, 2022).
Where a SMILES comes first, the peptide text is derived from it.

Key:
[1] = tested on: trypsin; experiment: Enzyme stability of peptide with trypsin; format: in vitro ADME; details: 37 °C, during 1.5 h, UV 205 nm
Method: As to the enzyme stability of peptide, equal amount of peptide and p@FNA were treated with trypsin and incubated in 37 °C for 1.5, 3, and 6 h. The remaining amount of peptide was measured by UV spectrophotometer (205 nm). As to enzyme stability of tFNA, equal amount of tFNA and p@FNA were treated with DNase I for 1 min. After neutralization, samples were examined by 6%PAGE at 60 V for 80 min.

[2] = tested on: HUVEC; experiment: Tube formation assay on Matrigel; format: cell-based; details: inhibitor+p@tFNA group; n = 3
Method: (§1) HUVECs under diabetic microenvironment were induced by incubation with 200 μg/ml AGEs (Bioss, Beijing, China) for 24 h. Cells were then treated with peptides or p@FNA (125 nM) for subsequent experiments.
The formation of blood vessel‐like structures in vitro was observed by tube formation assay. Cells were pre‐incubated with AGEs for 24 h and subsequently treated with peptide or p@FNA for another 24 h. Subsequently, 100 μl of HUVEC (1–1.5 × 10^5 cells/ml) were seeded on Matrigel (Corning, NY) in 96‐well plates. Images were taken after 6 h. Statistical analysis of tube formation was performed by Image J.

[3] = tested on: p-ERK1/2; experiment: Western blotting, ERK1/2 phosphorylation; format: cell-based; details: inhibitor plus p@tFNA treatment, n = 3
Method: as §1
(§2) The expression of β‐actin, VEGFA, MMP‐9, ERK1/2 and p‐ERK1/2 was detected by western blotting. The total protein of the sample was extracted by whole cell lysis method. The target protein was separated by 10% SDS‐PAGE and transferred to PVDF membrane. The bands were blocked in 5% BSA for 1 h and then incubated with primary antibodies against β‐actin (1:5000, PMK058S, BioPM, Wuhan, China), VEGFA (ab214424, Abcam, Cambridge, UK), MMP‐9 (ab76003, Abcam, Cambridge, UK), ERK1/2 (1:1000, CST, #4370, MA) and p‐ERK1/2 (1:2000, CST, #4370, MA) overnight at 4°C. The next day, PVDF membranes were rewarmed and incubated with secondary antibodies for 1 h. Bands were washed three times with TBST. The final exposure was performed in a Bio‐Rad chemiluminometry.

[4] = tested on: VEGFA; experiment: Western blotting, VEGFA protein; format: cell-based; details: inhibitor plus p@tFNA treatment, n = 3
Method: as §1, §2

Compound | Stability to trypsin (in words) [1] | Tube formation after ERK1/2 inhibition: branching intervals [2] [fold] | Tube formation after ERK1/2 inhibition: branching length [2] [fold] | Tube formation after ERK1/2 inhibition: junctions [2] [fold] | Tube formation after ERK1/2 inhibition: meshes [2] [fold] | Tube formation after ERK1/2 inhibition: nodes [2] [fold] | Tube formation after ERK1/2 inhibition: total length [2] [fold] | Tube formation after ERK1/2 inhibition: total mesh area [2] [fold] | p-ERK1/2 expression after ERK1/2 inhibitor [3] [fold] | VEGFA expression after ERK1/2 inhibitor [4] [fold]
C[C@@H](O)[C@H](NC(=O)[C@H](CCCNC(=N)N)NC(=O)CNC(=O)[C@H](CCC(=O)O)NC(=O)[C@@H](N)CCCNC(=N)N)C(=O)O [peptide] (H-REGRT-OH) | rapid decomposition |  |  |  |  |  |  |  |  | 
Cn1nccc1Nc1nccc(-c2cc3c(s2)C(C)(C)N(CCN2CCOCC2)C3=O)n1 [LY3214996] |  | 0.49 | 0.25 | 0.19 | 0.13 | 0.20 | 0.35 | 0.02 | 0.69 | 0.59
